{"source": "patent US20210038579A1", "about": "“Treatment Of Patients With Classic Fabry Disease” (Amicus Therapeutics, Inc., priority 2018, published 2021)", "test_in_all_cases": "HEK assay: α-Gal A activity in HEK-293 cell lysate with migalastat", "format_in_all_cases": "cell-based", "key": {"[1]": {"target": "T1, α-Gal A mutant form p.Ala156Thr (c.466 G > A) (Homo sapiens, UniProt P06280, A156T)", "T1 construct": "expressed in transfected cells; host or cells: HEK-293", "T1 sequence (P06280 32-429 A156T)": "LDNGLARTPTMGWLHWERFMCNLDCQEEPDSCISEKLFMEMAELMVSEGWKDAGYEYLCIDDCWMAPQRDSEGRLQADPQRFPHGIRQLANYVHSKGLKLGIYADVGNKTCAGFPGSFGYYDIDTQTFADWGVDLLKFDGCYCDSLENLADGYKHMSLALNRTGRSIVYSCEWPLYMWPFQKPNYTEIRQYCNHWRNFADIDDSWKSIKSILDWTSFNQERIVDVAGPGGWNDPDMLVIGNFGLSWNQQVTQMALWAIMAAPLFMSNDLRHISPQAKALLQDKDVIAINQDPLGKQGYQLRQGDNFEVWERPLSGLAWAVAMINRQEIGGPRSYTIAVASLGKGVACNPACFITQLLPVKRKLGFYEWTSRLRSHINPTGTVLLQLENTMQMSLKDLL", "procedure,_shortened": "(§1)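 HEK-293 cells are transfected transiently with cDNA for each missense or small in-frame indel α-Gal A mutant. They are cultured ±migalastat across 17 nM to 1 mM over 4 to 5 days, after which lysate enzyme is quantified fluorogenically (4-MU-α-Gal) or by immunoblot.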"}, "[2]": {"target": "T2, α-Gal A mutant form p.Asp264Tyr (c.790 G > T) (Homo sapiens, UniProt P06280, D264Y)", "T2 construct": "expressed in transfected cells; host or cells: HEK-293", "T2 sequence (P06280 32-429 D264Y)": "T1 sequence (P06280 32-429 A156T) with T125A, D233Y", "procedure,_shortened": "as §1"}, "[3]": {"target": "T3, α-Gal A mutant form p.Asp55Val/Glu57Leu (c.164 A > T; c.170 A > T) (Homo sapiens, UniProt P06280, D55V/Q57L)", "T3 construct": "expressed in transfected cells; host or cells: HEK-293", "T3 sequence (P06280 32-429 D55V/Q57L)": "T1 sequence (P06280 32-429 A156T) with D24V, Q26L, T125A", "procedure,_shortened": "as §1"}, "[4]": {"target": "T4, α-Gal A mutant form p.Gly373Ser (c.1117 G > A) (Homo sapiens, UniProt P06280, G373S)", "T4 construct": "expressed in transfected cells; host or cells: HEK-293", "T4 sequence (P06280 32-429 G373S)": "T1 sequence (P06280 32-429 A156T) with T125A, G342S", "procedure,_shortened": "as §1"}, "[5]": {"target": "T5, α-Gal A mutant form p.Gly85Asp (c.254 G > A) (Homo sapiens, UniProt P06280, G85D)", "T5 construct": "expressed in transfected cells; host or cells: HEK-293", "T5 sequence (P06280 32-429 G85D)": "T1 sequence (P06280 32-429 A156T) with G54D, T125A", "procedure,_shortened": "as §1"}, "[6]": {"settings": "+10 μM migalastat, HEK-293 cell lysate, mean ± SEM, n = 20"}, "[7]": {"settings": "HEK293, 10 μM migalastat minus baseline, read-out: Absolute increase at 10 μM (% WT)"}}, "note": "Substitutions are numbered along the chain they refer to.", "data": [{"smiles": "OC[C@H]1NC[C@H](O)[C@@H](O)[C@H]1O", "note": "[migalastat]", "values": [{"measurement": "α-Gal A activity at 10 μM (fold over baseline)", "setting": "[1]; 10 μM migalastat", "result": 7.75, "unit": "fold over baseline"}, {"measurement": "+Migalastat α-Gal A activity", "setting": "[1]; [6]", "result": "7034 ± 289", "unit": "nmol/mg/h"}, {"measurement": "+Migalastat α-Gal A activity % WT", "setting": "[1]; [6]", "result": "21.9 ± 0.9", "unit": "% WT"}, {"measurement": "activation at 10 µM", "setting": "[1]; [7]", "result": 19.1, "unit": "%"}, {"measurement": "α-Gal A activity at 10 μM (fold over baseline)", "setting": "[2]; 10 μM migalastat", "result": 12.89, "unit": "fold over baseline"}, {"measurement": "+Migalastat α-Gal A activity", "setting": "[2]; [6]", "result": "1842 ± 100", "unit": "nmol/mg/h"}, {"measurement": "+Migalastat α-Gal A activity % WT", "setting": "[2]; [6]", "result": "6.2 ± 0.3", "unit": "% WT"}, {"measurement": "activation at 10 µM", "setting": "[2]; [7]", "result": 5.7, "unit": "%"}, {"measurement": "activation at 10 µM", "setting": "[3]; 10 μM migalastat minus baseline, read-out: Absolute increase at 10 μM (% WT)", "result": 8, "unit": "%"}, {"measurement": "+Migalastat α-Gal A activity", "setting": "[3]; [6]", "result": "2526 ± 287", "unit": "nmol/mg/h"}, {"measurement": "+Migalastat α-Gal A activity % WT", "setting": "[3]; [6]", "result": "8.0 ± 0.5", "unit": "% WT"}, {"measurement": "α-Gal A activity at 10 μM (fold over baseline)", "setting": "[4]; 10 μM migalastat", "result": 3.32, "unit": "fold over baseline"}, {"measurement": "+Migalastat α-Gal A activity", "setting": "[4]; [6]", "result": "5128 ± 288", "unit": "nmol/mg/h"}, {"measurement": "+Migalastat α-Gal A activity % WT", "setting": "[4]; [6]", "result": "15.7 ± 0.8", "unit": "% WT"}, {"measurement": "activation at 10 µM", "setting": "[4]; [7]", "result": 10.9, "unit": "%"}, {"measurement": "α-Gal A activity at 10 μM (fold over baseline)", "setting": "[5]; 10 μM migalastat", "result": 5.10, "unit": "fold over baseline"}, {"measurement": "+Migalastat α-Gal A activity", "setting": "[5]; [6]", "result": "4534 ± 135", "unit": "nmol/mg/h"}, {"measurement": "+Migalastat α-Gal A activity % WT", "setting": "[5]; [6]", "result": "14.3 ± 0.9", "unit": "% WT"}, {"measurement": "activation at 10 µM", "setting": "[5]; [7]", "result": 11.6, "unit": "%"}]}]}
